The target in data set [1] is T1, Calcium/calmodulin-dependent protein kinase type II subunit alpha (Rattus norvegicus, UniProt P11275). As to the kind of experiment: Inhibition of […] binding to CaMKIIalpha in rat brain cortical membrane assessed as inhibition constant incubated for 1 hrs by TopCount NXT microplate scintillation counter analysis. Type of data set: cell membranes, Cortex.
Data set [2] has as its target T2, Calcium/calmodulin-dependent protein kinase type II subunit alpha (Homo sapiens, UniProt Q9UQM7). Description: Induction of thermal stabilization of recombinant wildtype human CAMKIIalpha hub domain (345 to 475 residues) extracted from Escherichia coli BL21 (DE3) cells assessed as change in melting temperature at 0.625 to 320 microM by differential scanning fluorimetric analysis. Particulars: dose 0.625-320 µM.

The target in data set [3] is T2, Calcium/calmodulin-dependent protein kinase type II subunit alpha. As to the kind of experiment: Induction of thermal stabilization of recombinant wildtype human CAMKIIalpha hub domain (345 to 475 residues) extracted from Escherichia coli BL21 (DE3) cells by differential scanning fluorimetric analysis. The note with it: dose 0.625-320 µM. (In general: Differential scanning fluorimetry follows unfolding on heating by fluorescence.)

Data set [4] has as its target T1, Calcium/calmodulin-dependent protein kinase type II subunit alpha. Description: Inhibition of [3H]NCS-382 binding to CaMKIIalpha in rat brain cortical membrane assessed as inhibition constant incubated for 1 hrs by TopCount NXT microplate scintillation counter analysis. It is filed as cell membranes, Cortex.
For data set [5], the system named is BCRP. As to the kind of experiment: Efflux ratio of apparent permeability across basolateral to apical side over apical to basolateral side in human Caco-2 cells transfected with human BCRP at 3 uM measured after 60 to 90 mins by LC-MS/MS analysis. Type of data set: ADME, cell-based. The note with it: time 60-90 min.
Data set [6] in a line: Drug concentration in mouse brain at 10 mg/kg, ip measured after 0.5 hrs by LC-MS/MS analysis. Type of data set: ADME, organism-based. Particulars: read-out: Ct.
The nature of data set [7]: Metabolic stability in pooled human plasma assessed as parent compound remaining at 20 uM measured after 60 mins by LC-MS analysis. It is filed as ADME, cell-free. Particulars: read-out: Stability.
Data set [8] in a line: Chemical stability of compound in phosphate buffer solution at pH 7.4. It is filed as physicochemical.
Data set [9] in a line: Metabolic stability in pooled human plasma assessed as parent compound remaining at 20 uM measured after 120 mins by LC-MS analysis. Type of data set: ADME, cell-free. Particulars: read-out: Stability.
Data set [10] in a line: Metabolic stability in pooled CD-1 mouse liver microsomes assessed as parent compound remaining at 10 uM measured after 60 mins in presence of NADPH regeneration system by LC-MS analysis. Type of data set: ADME, Microsome. Particulars: read-out: Stability. (Microsomes from liver hold many membrane-bound enzymes, among them those of drug oxidation.)
The test system of data set [11] is BCRP. As to the kind of experiment: Apparent permeability across apical to basolateral side in human Caco-2 cells transfected with human BCRP at 3 uM preincubated with novobiocin for 15 to 30 mins followed by compound addition and measured after 60 to 90 mins by LC-MS/MS analysis. Type of data set: ADME, cell-based. Particulars: time 60-90 min. For orientation: Caco-2 monolayers are a common model of the intestinal barrier.

Data set [12] can be described thus: Metabolic stability in pooled CD-1 mouse liver microsomes assessed as parent compound remaining at 10 uM measured after 15 mins in presence of NADPH regeneration system by LC-MS analysis. It is filed as ADME, Microsome. The note with it: read-out: Stability.
The test system of data set [13] is BCRP. As to the kind of experiment: Apparent permeability across basolateral to apical side in human Caco-2 cells transfected with human BCRP at 3 uM preincubated with novobiocin for 15 to 30 mins followed by compound addition and measured after 60 to 90 mins by LC-MS/MS analysis. It is filed as ADME, cell-based. The note with it: time 60-90 min.
The nature of data set [14]: Ratio of unbound brain to plasma drug concentration in mouse at 10 mg/kg, ip measured after 0.5 hrs by LC-MS/MS analysis. Type of data set: ADME, organism-based. Particulars: brain and plasma, read-out: K(p,uu,brain).
Data set [15] can be described thus: Metabolic stability in pooled CD-1 mouse liver microsomes assessed as parent compound remaining at 10 uM measured immediately in presence of NADPH regeneration system by LC-MS analysis. Particulars: read-out: Stability. It is filed as ADME, Microsome.
Data set [16] has as its system BCRP. As to the kind of experiment: Apparent permeability across apical to basolateral side in human Caco-2 cells transfected with human BCRP at 3 uM measured after 60 to 90 mins by LC-MS/MS analysis. Type of data set: ADME, cell-based. Particulars: time 60-90 min.
Data set [17] can be described thus: Metabolic stability in pooled human plasma assessed as parent compound remaining at 20 uM measured immediately by LC-MS analysis. Particulars: read-out: Stability. It is filed as ADME, cell-free.
Data set [18] in a line: Metabolic stability in pooled CD-1 mouse liver microsomes assessed as parent compound remaining at 10 uM measured after 30 mins in presence of NADPH regeneration system by LC-MS analysis. The note with it: read-out: Stability. It is filed as ADME, Microsome.
A short description of data set [19]: Drug concentration in mouse plasma at 10 mg/kg, ip measured after 0.5 hrs by LC-MS/MS analysis. It is filed as ADME, organism-based.
Data set [20] in a line: Metabolic stability in pooled human plasma assessed as parent compound remaining at 20 uM measured after 30 mins by LC-MS analysis. Particulars: read-out: Stability. Type of data set: ADME, cell-free.
Data set [21] concerns the target T2, Calcium/calmodulin-dependent protein kinase type II subunit alpha. As to the kind of experiment: Binding affinity to recombinant wildtype human CAMKIIalpha hub domain (345 to 475 residues) extracted from Escherichia coli BL21 (DE3) cells assessed as dissociation constant by SPR analysis.
Data set [22] concerns BCRP. As to the kind of experiment: Efflux ratio of apparent permeability across basolateral to apical side over apical to basolateral side in human Caco-2 cells transfected with human BCRP at 3 uM preincubated with novobiocin for 15 to 30 mins followed by compound addition and measured after 60 to 90 mins by LC-MS/MS analysis. Particulars: time 60-90 min. It is filed as ADME, cell-based.

Data set [23] can be described thus: Ratio of drug concentration in mouse brain to plasma at 10 mg/kg, ip measured after 0.5 hrs by LC-MS/MS analysis. It is filed as ADME, organism-based. Particulars: brain and plasma, read-out: BPR.
The test system of data set [24] is BCRP. As to the kind of experiment: Apparent permeability across basolateral to apical side in human Caco-2 cells transfected with human BCRP at 3 uM measured after 60 to 90 mins by LC-MS/MS analysis. It is filed as ADME, cell-based. Particulars: time 60-90 min.
Data set [25] is described as follows: Prodrug conversion in mouse plasma assessed as 2-(2,6-dichlorophenyl)thiazole-4-carboxylic acid release at 10 mg/kg, po measured after 0.5 hrs by LC-MS/MS analysis. Type of data set: ADME, organism-based. The note with it: in vivo.
The nature of data set [26]: Prodrug conversion in mouse brain assessed as 2-(2,6-dichlorophenyl)thiazole-4-carboxylic acid release at 10 mg/kg, po measured after 0.5 hrs by LC-MS/MS analysis. It is filed as ADME, organism-based. The note with it: in vivo.
A short description of data set [27]: physchem. Particulars: potassium phosphate buffer, pH 7.4.
Description: Stability of compound in potassium phosphate buffer at pH 7.4 assessed as half-life

The source of these data is ChEMBL document CHEMBL6096733, “Structure-Based Virtual Screening Identifies 2-Arylthiazole-4-Carboxylic Acids as a Novel Class of Nanomolar Affinity Ligands for the CaMKIIα Hub Domain” (J Med Chem, 2025).

T1 sequence (P11275 whole entry, the tested form may be a part): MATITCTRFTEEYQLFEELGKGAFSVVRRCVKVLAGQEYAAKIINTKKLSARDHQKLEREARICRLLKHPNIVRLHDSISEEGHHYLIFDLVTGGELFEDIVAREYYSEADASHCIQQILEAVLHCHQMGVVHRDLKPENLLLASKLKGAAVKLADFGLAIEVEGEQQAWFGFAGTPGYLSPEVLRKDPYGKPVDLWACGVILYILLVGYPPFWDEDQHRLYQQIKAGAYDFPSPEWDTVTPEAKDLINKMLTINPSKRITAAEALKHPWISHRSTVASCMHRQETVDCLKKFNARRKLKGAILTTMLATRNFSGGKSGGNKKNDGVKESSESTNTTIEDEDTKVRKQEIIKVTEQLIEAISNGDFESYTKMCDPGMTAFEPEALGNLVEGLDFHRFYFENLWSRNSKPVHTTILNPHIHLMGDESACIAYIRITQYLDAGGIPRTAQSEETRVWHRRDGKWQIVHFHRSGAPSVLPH
T2 sequence (Q9UQM7 whole entry, the tested form may be a part): as the sequence (P11275 whole entry, the tested form may be a part) above, with N324S counted along it

`Clc1cccc(Cl)c1-c1nc(Cc2nnn[nH]2)cs1`: the Ki in data set [1] (read-out: Ki) came out at 44800 nM.

As for `O=C(O)c1cnc(-c2ccccc2)s1`, in data set [1] (read-out: Ki), the Ki is greater than 100000 nM.

Consider `Clc1cccc(Cl)c1-c1nc(-c2nnn[nH]2)cs1`, for which the Ki in data set [1] (read-out: Ki) was 190 nM.

As for `O=C(O)C1=CC(O)CC1` (stereo not drawn), the Ki in data set [1] (read-out: pKi (converted)) was 126 nM.

Take `O=C(O)Cc1csc(-c2ccccc2)n1`: the Ki in [1] (read-out: Ki) is 3100 nM.

As for `COc1cccc(-c2nc(C(=O)O)cs2)c1`, the Ki in [1] (read-out: Ki) was 9900 nM.

In the case of `Cc1ccc(-c2nc(C(=O)O)cs2)cc1`, the Ki in [1] (read-out: Ki) was 2300 nM; in data set [1] (read-out: pKi (converted)) it was 12600 nM.

In the case of `O=C(O)c1csc(-c2ccccc2Cl)n1`, the Ki in data set [1] (read-out: Ki) worked out at 1000 nM.

For the compound `O=C(O)c1csc(-c2ccccc2)n1`, the Ki in [1] (read-out: Ki) amounted to 11500 nM.

Turning to `Cc1cccc(C)c1-c1nc(C(=O)O)cs1`, the ΔTm in data set [2] stood at 18 °C. Besides, the Ki in data set [1] (read-out: Ki) is 100 nM. For the same compound, in data set [3], the Activity entry was “Dose-dependent-effect”.

For `O=C(O)c1csc(-c2ccccc2I)n1`, the Ki in data set [4] (read-out: Ki) stood at 160 nM.

For the compound `O=C(O)c1csc(-c2c(Cl)cccc2Cl)n1`, the efflux ratio at 3 µM in data set [5] turned out to be 1.06; in [22], 1.05. Besides, the values for the concentration at 0.5 h in data set [6] and in data set [19] were 350 ng/g and 18600 ng/mL, respectively. Besides, the thermal shift (ΔTm) in [2] stood at 21.4 °C. Besides, the remaining at 1 h, 20 µM in data set [7] was found to be 98%. For the same compound, the Stability entry in [8] is listed as “Stable”. Also, the remaining at 2 h, 20 µM in data set [9] amounted to 94%. Besides, the remaining at 1 h, 10 µM in [10] is 100%. Further, the apparent permeability from apical to basolateral (Papp A→B) at 3 µM came out at 10.9 ×10⁻⁶ cm/s in data set [11] and 10.7 ×10⁻⁶ cm/s in data set [16]. Besides, the remaining at 0.25 h, 10 µM in data set [12] came to 101%. Besides, the values for the apparent permeability from basolateral to apical (Papp B→A) at 3 µM in data set [13] and in data set [24] were 11.4 ×10⁻⁶ cm/s and 11.3 ×10⁻⁶ cm/s, respectively. In data set [14], the Kp uu at 0.5 h is 0.1. In addition, the remaining at 0 min, 10 µM in [15] is 100%. Also, the Ki in data set [1] (read-out: Ki) is 62 nM. Also, the remaining at 0 min, 20 µM in data set [17] worked out at 100%. Moreover, the remaining at 0.5 h, 10 µM in data set [18] came out at 104%. In data set [20], the remaining at 0.5 h, 20 µM came out at 101%. In addition, in data set [3], the Activity entry is “Dose-dependent-effect”. The Kd in data set [21] is 759 nM. Besides, the Kp at 0.5 h in [23] amounted to 0.02.

`O=C(O)c1csc(-c2cccc3ccccc23)n1`: in data set [1] (read-out: Ki), the Ki is 220 nM.

For the compound `CC(C)(C)COC(=O)c1csc(-c2c(Cl)cccc2Cl)n1`, the remaining at 1 h, 20 µM in data set [7] was 65%. Besides, in [8], the Stability entry is recorded as “Unstable”. Also, the remaining at 2 h, 20 µM in data set [9] came to 63%. The remaining at 1 h, 10 µM in [10] was 59%. In addition, the remaining at 0.25 h, 10 µM in data set [12] stood at 84%. Besides, in [15], the remaining at 0 min, 10 µM stood at 100%. Also, in [1] (read-out: Ki), the Ki was greater than 100000 nM. In addition, in data set [17], the remaining at 0 min, 20 µM is 100%. Moreover, the remaining at 0.5 h, 10 µM in data set [18] worked out at 75%. Moreover, in data set [20], the remaining at 0.5 h, 20 µM stood at 75%. The Drug metabolism entry in [25] and in [26] was “metabolite_notdetected” each time.

On to `O=C(O)c1csc(CCc2ccccc2)n1`, for which the Ki in [1] (read-out: Ki) turned out to be 2600 nM.

Take `O=C(O)c1csc(-c2ccccc2Br)n1`: the Ki in data set [4] (read-out: Ki) is 180 nM; in data set [4] (read-out: pKi (converted)), 158 nM.

For `COc1ccc(-c2nc(C(=O)O)cs2)cc1`, the Ki in [1] (read-out: Ki) amounted to 7200 nM.

Turning to `O=C(O)c1csc(-c2ccccc2O)n1`, the Ki in data set [4] (read-out: Ki) is 8000 nM.

For the compound `O=C(O)c1csc(-c2c(C(F)(F)F)cccc2C(F)(F)F)n1`, the Ki in [1] (read-out: Ki) was greater than 10000 nM.

For `O=C(O)c1csc(-c2ccc(C(F)(F)F)cc2)n1`, in data set [4] (read-out: Ki), the Ki worked out at 10300 nM.

`CCN(CC)CCOC(=O)c1ccc(N)cc1` [PROCAINE]: the half-life in [27] turned out to be 2 min.

As usually defined, the ΔTm is the change in melting temperature against a reference sample. Usually efflux ratio stands for a quotient of directional permeabilities that is used to spot active efflux. For orientation: Papp A→B means how fast a substance crosses the layer from the apical side. One may read the Papp B→A as the apparent permeability from the basolateral to the apical side of a cell layer. A word on the Kd: it is the constant that tells how readily two partners part at equilibrium. The half-life is how long it takes for the measured level to halve.
